From patent EP4775580A1, “COMPOUND, PHARMACEUTICAL COMPOSITION COMPRISING SAME, AND USE THEREOF” (Euregen Biopharma Co., Ltd., priority 2023, dated 2025)

Tests used:
[1] = Pharmacokinetics in rats after single IV and PO administration (LC-MS/MS); format: in vivo, male SD rats; details: SD rats
Procedure: (§1) • 1. Objective: This study aimed to characterize the pharmacokinetic properties of selected compounds from the examples of the present invention in SD rats following single intravenous (IV) injection and oral (PO) administration using LC-MS/MS methodology. • 2. Experimental Materials: Test compounds were prepared according to the examples of the present invention; male SD rats were obtained from the Laboratory Animal Department of Shanghai Institute of Planned Parenthood Research (License No. SCXK(Shanghai)2018-0006) or Shanghai Jihui Laboratory Animal Breeding Co., Ltd. (License No. SCXK(Shanghai)2022-0009). • 3. Experimental Methods: Preparation of 0.5% methylcellulose: 5 g of methylcellulose was weighed and dissolved in 1000 mL of purified water. Preparation of 0.5% methylcellulose (pH = 5.03): 5 g of methylcellulose was weighed and dissolved in 1000 mL of purified water, and the pH was adjusted to 5.03 with 100 mM citric acid.
Preparation of oral formulations: The required amount of test compound was weighed and dissolved in 0.5% methylcellulose solution or 0.5% methylcellulose (pH = 5.03) to obtain a suspension or solution at 1 or 3 mg/mL.
Preparation of intravenous injection formulations: The required amount of test compound (EB229, EB300, EB341, EB342) was weighed and dissolved in 0.5 mL dimethyl sulfoxide to prepare a 4 mg/mL solution. To 0.25 mL of this solution, 0.5 mL of polyethylene glycol 15-hydroxystearate (Solutol) and 4.25 mL of normal saline were added to obtain a 0.2 mg/mL solution. For EB834, 6 mg was weighed and dissolved in 0.1 mL dimethyl sulfoxide, followed by addition of 0.2 mL polyethylene glycol 15-hydroxystearate (Solutol) and 1.7 mL normal saline to obtain a 3 mg/mL solution.
Dosing: Male SD rats were fasted overnight prior to oral (PO) administration; fasting was not required for the single intravenous (IV) injection group. Food was provided 4 hours post-dosing.
(§2) Sample Collection: Blood was collected from the jugular vein or other suitable veins, with 0.2 mL collected at each time point. Samples were placed in tubes containing dipotassium ethylenediaminetetraacetate and kept on ice prior to centrifugation. Within 1 hour of blood collection, samples were centrifuged at 6800 × g for 6 minutes at 2-8°C and stored at -80°C.

[2] = Pharmacokinetics in mice after single IV and PO administration (LC-MS/MS); format: in vivo, male ICR mice; details: ICR mice
Procedure: as §1, with “in male ICR mice” for “in SD rats”, “male ICR mice” for “male SD rats”, “from” for “from the Laboratory Animal Department of Shanghai Institute of Planned Parenthood Research (License No. SCXK(Shanghai)2018-0006) or”, “0.5%” for “0.5% methylcellulose: 5 g of methylcellulose was weighed and dissolved in 1000 mL of purified water. Preparation of 0.5%”, “= 4.91):” for “= 5.03):”, “to 4.91” for “to 5.03”
Preparation of oral formulations: The required amount of test compound was weighed and dissolved in 0.5% methylcellulose (pH = 4.91) solution to obtain a suspension or solution at 3 mg/mL.
Preparation of intravenous injection formulations: The required amount of test compound was weighed and dissolved in 0.5 mL dimethyl sulfoxide to prepare a 12 mg/mL solution. To 0.25 mL of this solution, 0.5 mL of polyethylene glycol 15-hydroxystearate (Solutol) and 4.25 mL of normal saline were added to obtain a 0.6 mg/mL solution.
Dosing: Male ICR mice were fasted overnight prior to oral (PO) administration; fasting was not required for the single intravenous (IV) injection group. Food was provided 4 hours post-dosing.
as §2, with “0.03” for “0.2”, “-80°C. Blood sampling time points for intravenous administration were 0.083, 0.25, 0.5, 1, 2, 4, 8, 24, and 32 hours post-dosing. Blood sampling time points for oral administration were 0.25, 0.5, 1, 2, 4, 8, 24, and 32 hours post-dosing.” for “-80°C.”

MV-4-11 cells = test: Antiproliferative activity against MV-4-11 cells (CTG method, 72 h); format: cell-based; details: Homo sapiens, MV4-11, 72 hours incubation, CellTiter-Glo
Text: • 1. Experimental Principle: MV-4-11 is a human leukemia cell line harboring MLL translocation and expressing the MLL fusion protein MLL-AF4. […] Experimental Materials: CellTiter-Glo was purchased from Promega (Cat. #G7571); IMDM medium was purchased from Gibco (Cat. #12440061); fetal bovine serum was purchased from Excell (Cat. #FND500); dimethyl sulfoxide (DMSO) was purchased from Sigma (Cat. #D2650); 384-well cell culture plates were purchased from Corning (Cat. #3756); automated cell counter was obtained from Life Technologies (Model: Countess II); microplate reader was obtained from PerkinElmer (Model: EnVision Multilabel Reader). • 3. Experimental Methods: Cells in logarithmic growth phase were resuspended in growth medium (IMDM + 10% FBS) and diluted to the target density (50,000/mL). The cell suspension was seeded into 384-well plates at 50 µL per well and incubated overnight at 37°C in a 5% CO2 incubator.
Test compounds were dissolved in DMSO to prepare 10 mM stock solutions. The stock solutions were first diluted to 2 mmol/L with DMSO, followed by 3-fold serial dilutions to generate 10 concentrations. From each concentration, 5.5 µL was diluted with 94.5 µL growth medium. The diluted solutions were then added to the 384-well plates containing seeded cells at 5 µL per well.
Cells treated with test compounds were incubated at 37°C in a 5% CO2 incubator for 72 hours. The 384-well plates were equilibrated at room temperature, and 15 µL of CellTiter-Glo reagent was added to each well. The plates were mixed on a vortex mixer for 2 minutes and incubated at room temperature for 60 minutes. Luminescence values were read using the EnVision Multilabel Reader, and IC50 values were calculated using GraphPad Prism 5.0 software.

Compound: CCN(C(=O)c1cc(F)ccc1N1CCN([C@@H]2CCN([C@H](CCCN(C)CCOC)C(C)C)C2)c2ncncc21)C(C)C [Example 3]
- PO F ([1]; PO 30 mg/kg vs IV 3 mg/kg): 172%
- AUC(0-t) ([1]; rat, in vivo, IV 3 mg/kg, read-out: IV AUC(0-t)): 494 ng·h/mL
- clearance ([1]; rat, in vivo, IV 3 mg/kg, read-out: IV CL): 59.2 mL/min/kg
- Cmax ([1]; rat, in vivo, IV 3 mg/kg, read-out: IV Cmax): 193 ng/mL
- Vd ([1]; rat, in vivo, IV 3 mg/kg, read-out: IV Vss): 203 L/kg
- half-life ([1]; rat, in vivo, IV 3 mg/kg, read-out: IV t1/2 (converted)): 52.9 h
- AUC(0-t) ([1]; rat, in vivo, PO 30 mg/kg, 0.5% MC (pH 5.03), read-out: PO AUC(0-t)): 8500 ng·h/mL
- Cmax ([1]; rat, in vivo, PO 30 mg/kg, 0.5% MC (pH 5.03), read-out: PO Cmax): 1140 ng/mL
- half-life ([1]; rat, in vivo, PO 30 mg/kg, 0.5% MC (pH 5.03), read-out: PO t1/2 (converted)): 21.3 h
- PO F ([2]; PO 30 mg/kg vs IV 3 mg/kg): 25.6%
- AUC(0-t) ([2]; mouse, in vivo, IV 3 mg/kg, read-out: IV AUC(0-t)): 429 ng·h/mL
- clearance ([2]; mouse, in vivo, IV 3 mg/kg, read-out: IV CL): 104 mL/min/kg
- Cmax ([2]; mouse, in vivo, IV 3 mg/kg, read-out: IV Cmax): 418 ng/mL
- Vd ([2]; mouse, in vivo, IV 3 mg/kg, read-out: IV Vss): 65.1 L/kg
- half-life ([2]; mouse, in vivo, IV 3 mg/kg, read-out: IV t1/2 (converted)): 10.9 h
- AUC(0-t) ([2]; mouse, in vivo, PO 30 mg/kg, 0.5% methylcellulose (pH = 4.91), read-out: PO AUC(0-t)): 1100 ng·h/mL
- Cmax ([2]; mouse, in vivo, PO 30 mg/kg, 0.5% methylcellulose (pH = 4.91), read-out: PO Cmax): 293 ng/mL
- half-life ([2]; mouse, in vivo, PO 30 mg/kg, 0.5% methylcellulose (pH = 4.91), read-out: PO t1/2 (converted)): 6.49 h
- IC50 (MV-4-11 cells): 22.9 nM
